Experimental findings from patent US10881653B2, “Tricyclic compounds and their use in the treatment of cancer” (The United States of America, as represented by the …, priority 2015, dated 2021) are described below.

Where a name gives a salt, the structure may show the parent alone. Read-outs that look alike come from different tables or passages of the source. Where only a bound is given, the exact number is not on record here.

Assay [1] has as its target T1, recombinant thioredoxin reductase 1 (TrxR1) (Homo sapiens, UniProt Q16881).
T1 sequence (Q16881 1-649): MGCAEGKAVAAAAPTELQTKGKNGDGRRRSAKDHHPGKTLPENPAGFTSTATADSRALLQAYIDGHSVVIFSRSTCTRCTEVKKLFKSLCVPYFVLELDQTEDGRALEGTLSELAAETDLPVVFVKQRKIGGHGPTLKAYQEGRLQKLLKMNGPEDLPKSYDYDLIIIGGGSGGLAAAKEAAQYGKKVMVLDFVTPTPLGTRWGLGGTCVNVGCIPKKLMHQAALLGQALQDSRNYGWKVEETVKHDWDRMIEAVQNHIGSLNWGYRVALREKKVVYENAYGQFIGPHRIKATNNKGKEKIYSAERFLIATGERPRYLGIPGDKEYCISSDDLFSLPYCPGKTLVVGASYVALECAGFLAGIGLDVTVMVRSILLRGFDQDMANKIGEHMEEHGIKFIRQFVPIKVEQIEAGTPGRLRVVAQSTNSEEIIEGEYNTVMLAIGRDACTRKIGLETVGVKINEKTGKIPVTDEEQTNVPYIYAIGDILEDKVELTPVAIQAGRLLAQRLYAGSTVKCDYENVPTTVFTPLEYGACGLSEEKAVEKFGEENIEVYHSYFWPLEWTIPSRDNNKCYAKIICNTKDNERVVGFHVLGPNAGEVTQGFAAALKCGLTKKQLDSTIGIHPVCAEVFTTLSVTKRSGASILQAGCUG
Put plainly: Inhibition of recombinant TrxR1 (DTNB assay). It counts as biochemical. As to the method:
(§1) Small molecule inhibition of recombinant thioredoxin reductase 1 (TrxR1) and gluthathione reductase (GR) was examined in 96-well plate format. 15 nM TrxR1 was incubated in the presence of 250 μM NADPH, 0.1 mg/ml BSA, and various concentrations of the compound of Example 1 (1% DMSO final) in 50 mM Tris (pH 7.5) and 2 mM EDTA buffer for 15 minutes. Following the incubation period, 2.5 mM DTNB was added to each well and the change in O.D. at 412 nm was followed. Percent activity was determined using DMSO vehicle and no TrxR1 (blank) controls. 2 nM GR was incubated in the presence of 250 μM NADPH, 0.1 mg/ml BSA, and various concentrations of compounds (1% DMSO final) in 50 mM Tris (pH 7.5) and 2 mM EDTA buffer for 15 minutes. Following the incubation period, 1 mM GSSG was added to each well and the change in O.D. at 340 nm was followed. Percent activity was determined using DMSO vehicle and no GR (blank) controls.

The target in assay [2] is T2, gluthathione reductase (GR) (Homo sapiens, UniProt P00390).
T2 sequence (P00390 44-522): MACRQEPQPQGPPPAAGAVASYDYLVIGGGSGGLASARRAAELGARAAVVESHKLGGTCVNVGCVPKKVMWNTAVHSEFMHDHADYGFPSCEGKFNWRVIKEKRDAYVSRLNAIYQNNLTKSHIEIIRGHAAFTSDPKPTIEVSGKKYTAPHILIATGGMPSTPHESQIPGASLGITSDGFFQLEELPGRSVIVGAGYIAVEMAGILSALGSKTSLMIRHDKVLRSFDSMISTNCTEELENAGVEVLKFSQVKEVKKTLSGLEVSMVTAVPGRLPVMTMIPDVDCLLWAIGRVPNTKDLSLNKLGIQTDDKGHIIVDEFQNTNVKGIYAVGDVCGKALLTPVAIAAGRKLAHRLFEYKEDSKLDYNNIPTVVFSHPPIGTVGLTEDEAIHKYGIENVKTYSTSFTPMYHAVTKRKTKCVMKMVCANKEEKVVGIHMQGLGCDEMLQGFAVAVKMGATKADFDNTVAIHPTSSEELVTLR
Put plainly: Inhibition of recombinant GR (GSSG assay). It counts as biochemical. On the procedure:
as §1

The mark [3] stands for this setting: Biological Example 1, 15 nM TrxR1, 250 μM NADPH, 15 minutes incubation, read-out: TrxR inhibition.
[4] abbreviates: Biological Example 4, assays of Biological Example 1, read-out: TrxR Inhibition.
Setting [5] is: Biological Example 1, 2 nM GR, 250 μM NADPH, 15 minutes incubation.
The mark [6] stands for this setting: Biological Example 4, assays of Biological Example 1.

Take `Cc1cccc(CN2[C@@H]3C(=O)C=C[C@H]2[C@@H]2C(=O)N(c4c(C)cccc4C)C(=O)[C@@H]23)c1` (relative stereo) [Example 65, exo 4-(2,6-Dimethylphenyl)-11-(3-methylbenzyl)-4,11-diazatricyclo-[5.3.1.0^2,6]undec-9-ene-3,5,8-trione Trifluoroacetate]: the IC50 in assay [1] (setting [3]) was 4.52 µM; in assay [1] (setting [4]), 5.3 µM; in assay [2] (setting [5]), greater than 100 µM; in assay [2] (setting [6]), greater than 100 µM.
As to `CN1C(=O)C2C(C1=O)C1C(=O)C=CC2N1C` (stereo not drawn) [Example 60, exo-4,11-Dimethyl-4,11-diazatricyclo[5.3.1.0^2,6]undec-9-ene-3,5,8-trione Trifluoroacetate], the IC50 in assay [1] (setting [4]) is 15.4 µM; in assay [2] (setting [6]), greater than 100 µM.
For `O=C1C=CC2C3C(=O)N(c4ccccc4)C(=O)C3C1N2Cc1cccc(C(F)(F)F)c1` (centres unmarked) [Example 32, 4-Phenyl-11-(3-trifluorobenzyl)-4,11-diazatricyclo[5.3.1.0^2,6]undec-9-ene-3,5,8-trione Trifluoroacetate] the same measures were 1.44 µM and 35.8 µM.
As to `NS(=O)(=O)c1cccc(CN2[C@@H]3C(=O)C=C[C@H]2[C@@H]2C(=O)N(c4ccccc4)C(=O)[C@@H]23)c1` (relative stereo) [Example 67, exo-3-((3,5,10-Trioxo-4-phenyl-4,11-diazatricyclo[5.3.1.0^2,6]undec-8-en-11-yl)methyl)benzenesulfonamide Trifluoroacetate], the IC50 in assay [1] (setting [3]) is 1.31 µM; in assay [1] (setting [4]) it was 1.99 µM; in assay [2] (setting [5]), greater than 100 µM; in assay [2] (setting [6]), greater than 100 µM.
As for `CN1C(=O)[C@@H]2[C@H](C1=O)[C@H]1C(=O)C=C[C@@H]2N1Cc1ccccc1` (relative stereo) [Example 51, exo-11-Benzyl-4-methyl-4,11-diazatricyclo[5.3.1.0^2,6]undec-9-ene-3,5,8-trione Trifluoroacetate], the IC50 in assay [1] (setting [4]) was 4.61 µM; in assay [2] (setting [6]), greater than 100 µM.
For the molecule `CC1=CC(=O)C2C3C(=O)N(Cc4ccccc4)C(=O)C3C1N2Cc1ccccc1` (centres unmarked) [Example 15, 4,11-Dibenzyl-10-methyl-4,11-diazatricyclo[5.3.1.0^2,6]undec-9-ene-3,5,8-trione Trifluoroacetate], the IC50 in assay [1] (setting [3]) was 1.45 µM; in assay [1] (setting [4]), 3.33 µM; in assay [2] (setting [5]) it was greater than 100 µM; in assay [2] (setting [6]), greater than 100 µM.
On to `O=C1C=CC2C3C(=O)N(c4ccccc4)C(=O)C3C1N2Cc1cc(F)cc(F)c1` (centres unmarked) [Example 43, 11-(3,5-Difluorobenzyl)-4-phenyl-4,11-diazatricyclo[5.3.1.0^2,6]undec-9-ene-3,5,8-trione Trifluoroacetate], for which the IC50 in assay [1] (setting [4]) is 1.59 µM; in assay [2] (setting [6]) it was 91.7 µM.
Regarding `Cc1cccc(CN2[C@@H]3C(=O)C=C[C@H]2[C@@H]2C(=O)N(c4ccccc4)C(=O)[C@@H]23)c1` (relative stereo) [Example 21, exo-11-(3-Methylbenzyl)-4-phenyl-4,11-diazatricyclo[5.3.1.0^2,6]undec-9-ene-3,5,8-trione Trifluoroacetate], the IC50 in assay [1] (setting [3]) was 7.39 µM; in assay [1] (setting [4]) it was 1.15 µM; in assay [2] (setting [5]) it was greater than 100 µM; in assay [2] (setting [6]), greater than 100 µM.
Turning to `O=C1C=C[C@H]2C3C(=O)N(c4ccccc4)C(=O)C3[C@@H]1N2Cc1cccc(F)c1F` (mixture of isomers) [Example 30, endo-11-(2,3-Difluorobenzyl)-4-phenyl-4,11-diazatricyclo[5.3.1.0^2,6]undec-9-ene-3,5,8-trione Trifluoroacetate], the IC50 in assay [1] (setting [4]) came to 1.87 µM; in assay [2] (setting [6]), 25.2 µM.
For `CC1=CC(=O)[C@@H]2C3C(=O)N(C4CCCCC4)C(=O)C3[C@H]1N2Cc1ccccc1` (stereo partly drawn) [Example 13, endo-11-Benzyl-4-cyclohexyl-10-methyl-4,11-diazatricyclo[5.3.1.0^2,6]undec-9-ene-3,5,8-trione Trifluoroacetate] the same measures were 7.82 µM and greater than 100 µM.
For `Cc1cccc(CN2C3C=CC(=O)C2C2C(=O)N(c4ccccc4)C(=O)C23)c1F` (stereo not drawn) [Example 35, exo-11-(2-Fluoro-3-methylbenzyl)-4-phenyl-4,11-diazatricyclo[5.3.1.0^2,6]-undec-9-ene-3,5,8-trione Trifluoroacetate] the same measures were 1.06 µM and greater than 100 µM.
`Cc1cccc(CN2[C@@H]3C(=O)C=C[C@H]2[C@@H]2C(=O)N(c4cccc(N5CCOCC5)c4)C(=O)[C@@H]23)c1` (relative stereo) [Example 70, exo-11-(3-Methylbenzyl)-4-(3-(4-morpholino)phenyl)-4,11-diazatricyclo-[5.3.1.0^2,6]undec-9-ene-3,5,8-trione Trifluoroacetate]: the IC50 in assay [1] (setting [3]) is 2.26 µM; in assay [1] (setting [4]), 2.62 µM; in assay [2] (setting [5]), greater than 100 µM; in assay [2] (setting [6]), greater than 100 µM.
As for `O=C1C=CC2C3C(=O)N(c4ccccc4)C(=O)C3C1N2Cc1cccc(Cl)c1` (stereo not drawn) [Example 42, exo-11-(3-Chlorobenzyl)-4-phenyl-4,11-diazatricyclo[5.3.1.0^2,6]undec-9-ene-3,5,8-trione Trifluoroacetate], the figures for the IC50 in assay [1] (setting [4]) and in assay [2] (setting [6]) were 0.76 µM and 76.4 µM, respectively.
Taken in the same sequence, the figures for `CCN1C(=O)[C@@H]2[C@H](C1=O)[C@H]1C(=O)C=C[C@@H]2N1Cc1ccccc1` (relative stereo) [Example 47, exo-11-Benzyl-4-ethyl-4,11-diazatricyclo[5.3.1.0^2,6]undec-9-ene-3,5,8-trione Trifluoroacetate] were 4.15 µM and greater than 100 µM.
For `CCc1ccc(N2C(=O)[C@@H]3[C@H](C2=O)[C@H]2C(=O)C=C[C@@H]3N2Cc2cccc(C)c2)cc1` (relative stereo) [Example 59, exo-4-(4-Ethylphenyl)-11-(3-methylbenzyl)-4,11-diazatricyclo[5.3.1.0^2,6]-undec-9-ene-3,5,8-trione Trifluoroacetate] the same measures were 1.63 µM and greater than 100 µM.
`Cc1ccc(F)c(CN2C3C=CC(=O)C2C2C(=O)N(c4ccccc4)C(=O)C23)c1F` (stereo not drawn) [Example 38, endo-11-(2,6-Difluoro-3-methylbenzyl)-4-phenyl-4,11-diazatricyclo-[5.3.1.0^2,6]undec-9-ene-3,5,8-trione Trifluoroacetate]: the IC50 in assay [1] (setting [4]) came out at 1.36 µM; in assay [2] (setting [6]), 12.3 µM.
For `O=C1C=CC2C3C(=O)N(c4ccccc4)C(=O)C3C1N2Cc1cc(Cl)ccc1F` (stereo not drawn) [Example 40, exo-11-(5-Chloro-2-fluorobenzyl)-4-phenyl-4,11-diazatricyclo[5.3.1.0^2,6]-undec-9-ene-3,5,8-trione Trifluoroacetate] the same measures were 0.77 µM and 31.6 µM.
Consider `COC(=O)c1cccc(CN2[C@@H]3C(=O)C=C[C@H]2[C@H]2C(=O)N(c4ccccc4)C(=O)[C@H]23)c1` (relative stereo) [Example 45, endo-Methyl 3-((3,5,10-trioxo-4-phenyl-4,11-diazatricyclo[5.3.1.0^2,6]undec-8-en-11-yl)methyl)benzoate], for which the IC50 in assay [1] (setting [4]) was 1.4 µM; in assay [2] (setting [6]), greater than 100 µM.
Consider `O=C1C=CC2C3C(=O)N(c4ccccc4)C(=O)C3C1N2Cc1cccc(C(F)(F)F)c1F` (stereo not drawn) [Example 44, exo-11-(2-Fluoro-3-(trifluoromethyl)benzyl)-4-phenyl-4,11-diazatricyclo-[5.3.1.0^2,6]undec-9-ene-3,5,8-trione Trifluoroacetate], for which the IC50 in assay [1] (setting [4]) came to 2.33 µM.
